In brackets after ≈: the same amount, converted by molar mass.
Key:
Test in all cases: In vitro antibacterial evaluation: minimum inhibitory concentration (MIC), broth dilution method
Format in all cases: cell-based
[1] = tested on: Enterococcus sp.
Method: (§1) The minimum inhibitory concentration (MIC), the lowest concentration of the antibiotic which inhibits growth of the test organism, is determined by the broth dilution method using Muller-Hinton II […] (Baltimore Biological Laboratories) following the recommendations of the National Committee for Clinical Laboratory Standards [Methods for dilution antimicrobial susceptibility tests for bacteria that grow aerobically, approved standard M7-A2, National Committee for Clinical Laboratory Standards, Villanova, Pa].
(§2) An inoculum level of 5×10^5 CFU/mL, and a range of antibiotic concentrations (64-0.06 μg/mL) is used. […] The test organisms include a spectrum of Gram-positive bacteria comprised of Staphylococcus sp., Streptococcus sp. and Enterococcus sp. These organisms include recent clinical isolates that are resistant to methicillin, penicillin and/or vancomycin.

[2] = tested on: Escherichia coli
Method: as §1, §2

[3] = tested on: Staphylococcus sp.; conditions: broth dilution, 18 hours at 35° C.
Method: as §1, §2

[4] = tested on: Streptococcus sp.
Method: as §1, §2

MIC Enterococcus faecalis (ATCC 29212) ([1]; strain ATCC 29212): 8 µg/mL (≈ 5.54 µM)
MIC Enterococcus faecalis (GC 2242) ([1]; strain GC 2242): 4 µg/mL (≈ 2.77 µM)
MIC Enterococcus faecium (GC 2243) ([1]; strain GC 2243): 8 µg/mL (≈ 5.54 µM)
MIC Enterococcus faecalis (GC 2691) ([1]; strain GC 2691): 4 µg/mL (≈ 2.77 µM)
MIC Enterococcus faecalis (GC 3059) ([1]; strain GC 3059): 8 µg/mL (≈ 5.54 µM)
MIC Enterococcus faecalis (GC 4552) ([1]; strain GC 4552): 8 µg/mL (≈ 5.54 µM)
MIC Enterococcus faecalis (GC 4553) ([1]; strain GC 4553): 8 µg/mL (≈ 5.54 µM)
MIC Enterococcus faecalis (GC 4554) ([1]; strain GC 4554): 8 µg/mL (≈ 5.54 µM)
MIC Enterococcus faecium (GC 4556) ([1]; strain GC 4556): 8 µg/mL (≈ 5.54 µM)
MIC Enterococcus faecium (GC 4557) ([1]; strain GC 4557): 4 µg/mL (≈ 2.77 µM)
MIC Enterococcus avium (GC 4558) ([1]; strain GC 4558): 8 µg/mL (≈ 5.54 µM)
MIC Enterococcus faecalis (GC 6189) ([1]; strain GC 6189): 8 µg/mL (≈ 5.54 µM)
MIC Escherichia coli (ATCC 25922) ([2]; strain ATCC 25922): >64 µg/mL
MIC Escherichia coli (GC 4559) ([2]; strain GC 4559): 32 µg/mL (≈ 22.2 µM)
MIC Escherichi coli (GC 4560) ([2]; strain GC 4560): 1 µg/mL (≈ 0.693 µM)
MIC Coagulase Negative Staphylococcus (GC 4547) ([3]; 5×10^5 CFU/mL): 2 µg/mL (≈ 1.39 µM)
MIC Coagulase Negative Staphylococcus (GC 4548) ([3]; 5×10^5 CFU/mL): 1 µg/mL (≈ 0.693 µM)
MIC Coagulase Negative Staphylococcus (GC 4549) ([3]; 5×10^5 CFU/mL): 1 µg/mL (≈ 0.693 µM)
MIC Coagulase Negative Staphylococcus (GC 4551) ([3]; 5×10^5 CFU/mL): 2 µg/mL (≈ 1.39 µM)
MIC Coagulase Negative Staphylococcus (GC 6257) ([3]; 5×10^5 CFU/mL): 1 µg/mL (≈ 0.693 µM)
MIC Staphylococcus aureus (ATCC 29213) ([3]; 5×10^5 CFU/mL): 2 µg/mL (≈ 1.39 µM)
MIC Staphylococcus aureus (GC 1131) ([3]; 5×10^5 CFU/mL): 4 µg/mL (≈ 2.77 µM)
MIC Staphylococcus aureus (GC 3051) ([3]; 5×10^5 CFU/mL): 2 µg/mL (≈ 1.39 µM)
MIC Staphylococcus aureus (GC 3053) ([3]; 5×10^5 CFU/mL): 8 µg/mL (≈ 5.54 µM)
MIC Staphylococcus aureus (GC 4541) ([3]; 5×10^5 CFU/mL): 2 µg/mL (≈ 1.39 µM)
MIC Staphylococcus aureus (GC 4542) ([3]; 5×10^5 CFU/mL): 2 µg/mL (≈ 1.39 µM)
MIC Staphylococcus aureus (GC 4544) ([3]; 5×10^5 CFU/mL): 2 µg/mL (≈ 1.39 µM)
MIC Staphylococcus aureus (GC 4545) ([3]; 5×10^5 CFU/mL): 2 µg/mL (≈ 1.39 µM)
MIC Staphylococcus aureus-SMITH (GC 4543) ([3]; 5×10^5 CFU/mL): 2 µg/mL (≈ 1.39 µM)
MIC Staphylococcus aureus (ATCC 29213) ([3]; strain ATCC 29213): 2 µg/mL (≈ 1.39 µM)
MIC Staphylococcus aureus (GC 1131) ([3]; strain GC 1131): 4 µg/mL (≈ 2.77 µM)
MIC Staphylococcus aureus (GC 3051) ([3]; strain GC 3051): 2 µg/mL (≈ 1.39 µM)
MIC Staphylococcus aureus (GC 3053) ([3]; strain GC 3053): 8 µg/mL (≈ 5.54 µM)
MIC Staphylococcus aureus (GC 4541) ([3]; strain GC 4541): 2 µg/mL (≈ 1.39 µM)
MIC Staphylococcus aureus (GC 4542) ([3]; strain GC 4542): 2 µg/mL (≈ 1.39 µM)
MIC Staphylococcus aureus-SMITH (GC 4543) ([3]; strain GC 4543): 2 µg/mL (≈ 1.39 µM)
MIC Staphylococcus aureus (GC 4544) ([3]; strain GC 4544): 2 µg/mL (≈ 1.39 µM)
MIC Staphylococcus aureus (GC 4545) ([3]; strain GC 4545): 2 µg/mL (≈ 1.39 µM)
MIC Coagulase Negative Staphylococcus (GC 4547) ([3]; strain GC 4547): 2 µg/mL (≈ 1.39 µM)
MIC Coagulase Negative Staphylococcus (GC 4548) ([3]; strain GC 4548): 1 µg/mL (≈ 0.693 µM)
MIC Coagulase Negative Staphylococcus (GC 4549) ([3]; strain GC 4549): 1 µg/mL (≈ 0.693 µM)
MIC Coagulase Negative Staphylococcus (GC 4551) ([3]; strain GC 4551): 2 µg/mL (≈ 1.39 µM)
MIC Coagulase Negative Staphylococcus (GC 6257) ([3]; strain GC 6257): 1 µg/mL (≈ 0.693 µM)
MIC Streptococcus pneumoniae (ATCC 6301) ([4]; strain ATCC 6301): 0.25 µg/mL (≈ 0.173 µM)
MIC Streptococcus pneumoniae (GC 1894) ([4]; strain GC 1894): 0.12 µg/mL (≈ 0.0831 µM)
MIC Streptococcus pyogenes (GC 4563) ([4]; strain GC 4563): 0.5 µg/mL (≈ 0.346 µM)
MIC Streptococcus agalactiae (GC 4564) ([4]; strain GC 4564): 1 µg/mL (≈ 0.693 µM)
MIC Streptococcus pneumoniae (GC 4565) ([4]; strain GC 4565): 0.25 µg/mL (≈ 0.173 µM)
Compound: COc1cc(OC)cc(C2OCC3OC(OC4C(CO)OC(Oc5ccc(CC6NC(=O)C(C(C)c7ccccc7)NC(=O)CNC(=O)C(CO)NC(=O)C(C(O)C7CNC(=N)N7C7OC(CO)C(O)C(O)C7O)NC(=O)C(C(O)C7CNC(=N)N7)NC6=O)cc5)C(O)C4O)C(O)C(O)C3O2)c1 (stereo not drawn) [Example 150, Cyclo[glycyl-β-methylphenylalanyl-O-[4-O-[4,6-O-(3,5-dimethoxybenzylidene)hexopyranosyl]-hexopyranosyl]tyrosyl-3-(2-iminoimidazolidin-4-yl)seryl-3-(3-hexopyranosyl-2-iminoimidazolidin-4-yl)serylseryl]]
MIC Staphylococcus haemolyticus (GC 4546) ([3]; 5×10^5 CFU/mL): 1 µg/mL (≈ 0.693 µM)
MIC Staphylococcus haemolyticus (GC 4546) ([3]; strain GC 4546): 1 µg/mL (≈ 0.693 µM)

Source: US8247211B2, “Glycopeptide antibiotics” (American Cyanamid Company, priority 2001, dated 2012)
